Test system: angioedema in CSU patients
Assay: Phase 2 CSU study: angioedema activity score over 7 days (AAS7)
Assay type: in vivo, human
Set-up: AAS7, Median / AAS7 Change from baseline, Median: scale not given here
Settings: Omalizumab-Naïve Population
Description: The study comprises a 12 week, randomized, double-blind, placebo-controlled, multi-center, dose-ranging efficacy and safety phase, followed by a 40 week open label extension (OLE) phase (see FIG. 1). The study consists of three phases and an optional OLE phase. […] The weekly angioedema activity score (AAS7) was proposed as a tertiary endpoint. […] Patients were to complete the AAS using the e-diary. The e-diary was to be used once daily on the same time of each day recording of participant's answers to the angioedema activity score over 7 days (AAS7) questionnaire.

In the case of `CC(C)(C=C(C#N)C(=O)N1CCC[C@@H](n2nc(-c3ccc(Oc4ccccc4)cc3F)c3c(N)ncnc32)C1)N1CCN(C2COC2)CC1` [rilzabrutinib, (R)-2-[3-[4-amino-3-(2-fluoro-4-phenoxy-phenyl)pyrazolo[3,4-d]pyrimidin-1-yl]piperidine-1-carbonyl]-4-methyl-4-[4-(oxetan-3-yl)piperazin-1-yl]pent-2-enenitrile], the “AAS7, Median” value (400 mg BID, Week 10) is reported as 0.00, the “AAS7 Change from baseline, Mean (SD)” value (400 mg BID, Week 10) is reported as −29.84 (25.74) and the “AAS7 Change from baseline, Median” value (400 mg BID, Week 10) is reported as −24.00. For the same compound, the “AAS7 Percent change from baseline, Mean (SD)” value (from here on “AAS7 Percent change … (SD)”) (400 mg BID, Week 10) was −45.78 (130.13) %, the “AAS7 Percent change from baseline, Median” value (shortened to “AAS7 Percent change … Median”) (400 mg BID, Week 10) was −100.00% and the “AAS7, Median” value (400 mg BID, Week 11) was 0.00. For the same compound, the “AAS7 Change from baseline, Mean (SD)” value (400 mg BID, Week 11) was −35.05 (24.68), the “AAS7 Change from baseline, Median” value (400 mg BID, Week 11) was −29.17 and the “AAS7 Percent change … (SD)” value (400 mg BID, Week 11) was −73.13 (48.67) %. For the same compound, the “AAS7 Percent change … Median” value (400 mg BID, Week 11) was −100.00%, the “AAS7, Median” value (400 mg BID, Week 12) was 0.00 and the “AAS7 Change from baseline, Mean (SD)” value (400 mg BID, Week 12) was −35.73 (26.59). The “AAS7 Change from baseline, Median” value (400 mg BID, Week 12) was −37.00, the “AAS7 Percent change … (SD)” value (400 mg BID, Week 12) was −76.62 (36.34) % and the “AAS7 Percent change … Median” value (400 mg BID, Week 12) was −100.00%. The “AAS7, Mean (SD)” value (400 mg QPM, End of Study) was 17.46 (29.82), the “AAS7, Median” value (400 mg QPM, End of Study) was 4.00 and the “AAS7 Change from baseline, Mean (SD)” value (400 mg QPM, End of Study) was −4.04 (35.07). The “AAS7 Change from baseline, Median” value (400 mg QPM, End of Study) was −8.50, the “AAS7 Percent change … (SD)” value (400 mg QPM, End of Study) was −14.64 (160.23) % and the “AAS7 Percent change … Median” value (400 mg QPM, End of Study) was −92.00%. For the same compound, the “AAS7, Median” value (400 mg QPM, Week 1) was 39.00, the “AAS7 Change from baseline, Mean (SD)” value (400 mg QPM, Week 1) was −18.63 (22.01) and the “AAS7 Change from baseline, Median” value (400 mg QPM, Week 1) was −19.00. The “AAS7 Percent change … (SD)” value (400 mg QPM, Week 1) was −30.81 (44.93) %, the “AAS7 Percent change … Median” value (400 mg QPM, Week 1) was −35.35% and the “AAS7, Median” value (400 mg QPM, Week 2) was 31.50. The “AAS7 Change from baseline, Mean (SD)” value (400 mg QPM, Week 2) was −20.23 (24.12), the “AAS7 Change from baseline, Median” value (400 mg QPM, Week 2) was −11.00 and the “AAS7 Percent change … (SD)” value (400 mg QPM, Week 2) was −36.22 (43.96) %. The “AAS7 Percent change … Median” value (400 mg QPM, Week 2) was −31.31%, the “AAS7, Median” value (400 mg QPM, Week 3) was 34.00 and the “AAS7 Change from baseline, Mean (SD)” value (400 mg QPM, Week 3) was −20.88 (26.24). The “AAS7 Change from baseline, Median” value (400 mg QPM, Week 3) was −13.00, the “AAS7 Percent change … (SD)” value (400 mg QPM, Week 3) was −29.46 (63.83) % and the “AAS7 Percent change … Median” value (400 mg QPM, Week 3) was −26.00%. The “AAS7, Median” value (400 mg QPM, Week 4) was 35.00, the “AAS7 Change from baseline, Mean (SD)” value (400 mg QPM, Week 4) was −23.93 (24.26) and the “AAS7 Change from baseline, Median” value (400 mg QPM, Week 4) was −17.00. For the same compound, the “AAS7 Percent change … (SD)” value (400 mg QPM, Week 4) was −46.35 (39.61) %, the “AAS7 Percent change … Median” value (400 mg QPM, Week 4) was −46.27% and the “AAS7, Median” value (400 mg QPM, Week 5) was 23.50. The “AAS7 Change from baseline, Mean (SD)” value (400 mg QPM, Week 5) was −29.64 (28.55), the “AAS7 Change from baseline, Median” value (400 mg QPM, Week 5) was −17.00 and the “AAS7 Percent change … (SD)” value (400 mg QPM, Week 5) was −55.69 (41.16) %. For the same compound, the “AAS7 Percent change … Median” value (400 mg QPM, Week 5) was −59.46%, the “AAS7, Median” value (400 mg QPM, Week 6) was 24.38 and the “AAS7 Change from baseline, Mean (SD)” value (400 mg QPM, Week 6) was −28.36 (28.62). For the same compound, the “AAS7 Change from baseline, Median” value (400 mg QPM, Week 6) was −23.63, the “AAS7 Percent change … (SD)” value (400 mg QPM, Week 6) was −47.92 (45.31) % and the “AAS7 Percent change … Median” value (400 mg QPM, Week 6) was −55.14%. For the same compound, the “AAS7, Median” value (400 mg QPM, Week 7) was 30.00, the “AAS7 Change from baseline, Mean (SD)” value (400 mg QPM, Week 7) was −26.95 (30.21) and the “AAS7 Change from baseline, Median” value (400 mg QPM, Week 7) was −28.00. For the same compound, the “AAS7 Percent change … (SD)” value (400 mg QPM, Week 7) was −33.18 (69.78) %, the “AAS7 Percent change … Median” value (400 mg QPM, Week 7) was −50.00% and the “AAS7, Median” value (400 mg QPM, Week 8) was 18.00. The “AAS7 Change from baseline, Mean (SD)” value (400 mg QPM, Week 8) was −29.80 (30.38), the “AAS7 Change from baseline, Median” value (400 mg QPM, Week 8) was −28.00 and the “AAS7 Percent change … (SD)” value (400 mg QPM, Week 8) was −49.05 (70.23) %. The “AAS7 Percent change … Median” value (400 mg QPM, Week 8) was −66.00%, the “AAS7, Median” value (400 mg QPM, Week 9) was 26.30 and the “AAS7 Change from baseline, Mean (SD)” value (400 mg QPM, Week 9) was −28.66 (27.25). For the same compound, the “AAS7 Change from baseline, Median” value (400 mg QPM, Week 9) was −29.00, the “AAS7 Percent change … (SD)” value (400 mg QPM, Week 9) was −46.39 (66.49) % and the “AAS7 Percent change … Median” value (400 mg QPM, Week 9) was −56.26%. For the same compound, the “AAS7, Median” value (400 mg QPM, Week 10) was 28.00, the “AAS7 Change from baseline, Mean (SD)” value (400 mg QPM, Week 10) was −28.93 (28.14) and the “AAS7 Change from baseline, Median” value (400 mg QPM, Week 10) was −28.92. The “AAS7 Percent change … (SD)” value (400 mg QPM, Week 10) was −46.90 (68.16) %, the “AAS7 Percent change … Median” value (400 mg QPM, Week 10) was −50.17% and the “AAS7, Median” value (400 mg QPM, Week 11) was 30.10. For the same compound, the “AAS7 Change from baseline, Mean (SD)” value (400 mg QPM, Week 11) was −29.18 (28.09), the “AAS7 Change from baseline, Median” value (400 mg QPM, Week 11) was −32.40 and the “AAS7 Percent change … (SD)” value (400 mg QPM, Week 11) was −47.96 (69.01) %. The “AAS7 Percent change … Median” value (400 mg QPM, Week 11) was −52.90%, the “AAS7, Median” value (400 mg QPM, Week 12) was 26.83 and the “AAS7 Change from baseline, Mean (SD)” value (400 mg QPM, Week 12) was −29.03 (28.74). For the same compound, the “AAS7 Change from baseline, Median” value (400 mg QPM, Week 12) was −28.00, the “AAS7 Percent change … (SD)” value (400 mg QPM, Week 12) was −48.34 (71.54) % and the “AAS7 Percent change … Median” value (400 mg QPM, Week 12) was −59.34%. The “AAS7, Mean (SD)” value (400 mg TID, End of Study) was 26.75 (33.68), the “AAS7, Median” value (400 mg TID, End of Study) was 16.00 and the “AAS7 Change from baseline, Mean (SD)” value (400 mg TID, End of Study) was −21.25 (14.29). For the same compound, the “AAS7 Change from baseline, Median” value (400 mg TID, End of Study) was −27.00, the “AAS7 Percent change … (SD)” value (400 mg TID, End of Study) was −58.11 (43.26) % and the “AAS7 Percent change … Median” value (400 mg TID, End of Study) was −66.21%. The “AAS7, Median” value (400 mg TID, Week 1) was 9.00, the “AAS7 Change from baseline, Mean (SD)” value (400 mg TID, Week 1) was −28.96 (27.34) and the “AAS7 Change from baseline, Median” value (400 mg TID, Week 1) was −26.00. For the same compound, the “AAS7 Percent change … (SD)” value (400 mg TID, Week 1) was −56.39 (51.49) %, the “AAS7 Percent change … Median” value (400 mg TID, Week 1) was −89.41% and the “AAS7, Median” value (400 mg TID, Week 2) was 9.33. The “AAS7 Change from baseline, Mean (SD)” value (400 mg TID, Week 2) was −30.89 (28.32), the “AAS7 Change from baseline, Median” value (400 mg TID, Week 2) was −27.00 and the “AAS7 Percent change … (SD)” value (400 mg TID, Week 2) was −58.84 (53.09) %. The “AAS7 Percent change … Median” value (400 mg TID, Week 2) was −81.97%, the “AAS7, Median” value (400 mg TID, Week 3) was 0.00 and the “AAS7 Change from baseline, Mean (SD)” value (400 mg TID, Week 3) was −33.83 (29.99). For the same compound, the “AAS7 Change from baseline, Median” value (400 mg TID, Week 3) was −27.00, the “AAS7 Percent change … (SD)” value (400 mg TID, Week 3) was −69.93 (48.65) % and the “AAS7 Percent change … Median” value (400 mg TID, Week 3) was −100.00%. For the same compound, the “AAS7, Median” value (400 mg TID, Week 4) was 5.00, the “AAS7 Change from baseline, Mean (SD)” value (400 mg TID, Week 4) was −36.18 (24.55) and the “AAS7 Change from baseline, Median” value (400 mg TID, Week 4) was −27.00. The “AAS7 Percent change … (SD)” value (400 mg TID, Week 4) was −76.56 (30.09) %, the “AAS7 Percent change … Median” value (400 mg TID, Week 4) was −93.33% and the “AAS7, Median” value (400 mg TID, Week 5) was 6.00. The “AAS7 Change from baseline, Mean (SD)” value (400 mg TID, Week 5) was −37.08 (26.17), the “AAS7 Change from baseline, Median” value (400 mg TID, Week 5) was −30.00 and the “AAS7 Percent change … (SD)” value (400 mg TID, Week 5) was −73.55 (35.00) %. The “AAS7 Percent change … Median” value (400 mg TID, Week 5) was −88.24%, the “AAS7, Median” value (400 mg TID, Week 6) was 0.00 and the “AAS7 Change from baseline, Mean (SD)” value (400 mg TID, Week 6) was −32.35 (30.51). The “AAS7 Change from baseline, Median” value (400 mg TID, Week 6) was −27.00, the “AAS7 Percent change … (SD)” value (400 mg TID, Week 6) was −63.91 (58.28) % and the “AAS7 Percent change … Median” value (400 mg TID, Week 6) was −100.00%. The “AAS7, Median” value (400 mg TID, Week 7) was 2.50 and the “AAS7 Change from baseline, Mean (SD)” value (400 mg TID, Week 7) was −32.23 (26.57).
